This test addresses wild-type un-phosphorylated FGFR3 protein (Homo sapiens, UniProt P22607). The test is described as follows: FGFR Enzymatic Assay (FRET detection of peptide phosphorylation). As to conditions: pre-incubated for 4 hours, read-out: FGFR3_Ki. The class given is biochemical. In a few lines:
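Wild-type un-phosphorylated FGFR3, preincubated 5–15 min with inhibitor in HEPES pH 7.5/MgCl2/DTT buffer, then peptide phosphorylation for 1 hr at 25 °C (ATP Km pre-determined). Quenched with EDTA/staurosporin; Eu-PY20/APC-streptavidin FRET read; IC50 from four-parameter logistic fit.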

A value given as a limit tells only on which side of the number the result lay.

Sequence of wild-type un-phosphorylated FGFR3 protein (P22607 23-806): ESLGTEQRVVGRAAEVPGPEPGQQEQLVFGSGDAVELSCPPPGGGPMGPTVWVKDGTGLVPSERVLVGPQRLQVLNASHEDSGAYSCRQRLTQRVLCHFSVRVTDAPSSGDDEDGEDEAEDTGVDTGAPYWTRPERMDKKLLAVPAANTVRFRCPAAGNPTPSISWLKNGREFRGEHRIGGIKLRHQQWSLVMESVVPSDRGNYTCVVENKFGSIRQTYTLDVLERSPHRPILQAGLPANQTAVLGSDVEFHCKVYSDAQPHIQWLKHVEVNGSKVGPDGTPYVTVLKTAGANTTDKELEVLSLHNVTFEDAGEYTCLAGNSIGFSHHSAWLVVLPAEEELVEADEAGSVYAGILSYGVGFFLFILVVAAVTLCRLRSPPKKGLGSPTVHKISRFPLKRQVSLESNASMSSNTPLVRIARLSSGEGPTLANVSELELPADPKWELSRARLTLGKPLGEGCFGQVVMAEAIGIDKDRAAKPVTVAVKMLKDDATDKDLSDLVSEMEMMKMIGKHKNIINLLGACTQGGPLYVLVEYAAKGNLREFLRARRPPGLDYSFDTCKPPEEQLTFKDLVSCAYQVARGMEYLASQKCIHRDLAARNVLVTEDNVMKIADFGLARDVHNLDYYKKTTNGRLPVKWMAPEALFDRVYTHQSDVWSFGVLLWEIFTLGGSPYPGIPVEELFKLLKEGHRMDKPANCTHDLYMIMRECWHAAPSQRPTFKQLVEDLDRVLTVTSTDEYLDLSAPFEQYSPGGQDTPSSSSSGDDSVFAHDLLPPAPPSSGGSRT

For the molecule `CS(=O)(=O)CCn1cc(-c2cnc3ccn4c(CO)c(-c5c(Cl)cccc5Cl)nc4c3c2)cn1` [Example 80, (2-(2,6-Dichlorophenyl)-9-(1-(2-(methylsulfonyl)ethyl)-1H-pyrazol-4-yl)imidazo[2,1-f][1,6]naphthyridin-3-yl)methanol], the Ki was under 10 nM.
With `OCc1c(-c2c(Cl)cccc2Cl)nc2c3cc(-c4cnn(CC(F)(F)F)c4)cnc3ccn12` [Example 81, (2-(2,6-Dichlorophenyl)-9-(1-(2,2,2-trifluoroethyl)-1H-pyrazol-4-yl)imidazo[2,1-f][1,6]naphthyridin-3-yl)methanol] the figure was under 10 nM; with `OCc1c(-c2c(Cl)cccc2Cl)nc2c3cc(-c4cnn(CCN5CCOCC5)c4)cnc3ccn12` [Example 82, (2-(2,6-Dichlorophenyl)-9-(1-(2-morpholinoethyl)-1H-pyrazol-4-yl)imidazo[2,1-f][1,6]naphthyridin-3-yl)methanol], under 10 nM.
On to `OCCn1cc(-c2cnc3ccn4c(CO)c(-c5c(Cl)cccc5Cl)nc4c3c2)cn1` [Example 83, 2-(4-(2-(2,6-Dichlorophenyl)-3-(hydroxymethyl)imidazo[2,1-f][1,6]naphthyridin-9-yl)-1H-pyrazol-1-yl)ethan-1-ol], for which the Ki is under 10 nM.

(Values after patent publication US12552804B2, “Tricyclic heterocycles as FGFR inhibitors” (Incyte Corporation, priority 2019, dated 2026).)
